Source: US20240100127A1, “TIRZEPATIDE THERAPEUTIC METHODS” (Eli Lilly and Company, priority 2021, published 2024)

System: patients with T2DM with HbA1c between ≥7.0% and ≤10.5% on metformin or metformin plus an SGLT-2 inhibitor
Experiment: Example 1 clinical trial using tirzepatide, 52 weeks, versus insulin degludec
Format: in vivo, human
Details: standard titration protocol
Source text: The enrollment criteria, set forth in Table 1 below, are designed to include participants who are similar to patients seen within a typical diabetes practice, and include some patient with type 2 diabetes that is refractory to oral treatment. Geriatric patients are included. Mean duration with type 2 diabetes about 8 years. Study continues for 52 weeks.
The study is designed to consist of a screening visit followed by a single-blind 3-week placebo run-in period. Afterwards, patients are randomized to tirzepatide 5, 10, or 15 mg (dosed using an escalation dose protocol) or insulin degludec (standard titration protocol) and followed at approximately monthly intervals. Patients receiving insulin degludec follow standard insulin degludec titration protocol during the study. Study protocol includes blood pressure measurement at each visit and serum lipid profile at study initiation and at 52 weeks using standard clinical methods. Blood Pressure measures using the methods of Example 1 are represented in FIGS. 3 and 4. HDL-C levels using the methods of Example 1 are represented in FIG. 1.

How did the “Percent patients achieving ≤5.7% HbA1c by 52 weeks” value turn out when insulin degludec was run?
Its value is “insulin degludec: 5.4%”.
